What all share (type): biochemical, C. elegans
For one assay, the target named is T1, apo ACOX-1.1 (Caenorhabditis elegans, UniProt O62140).
T1 sequence (O62140 1-674): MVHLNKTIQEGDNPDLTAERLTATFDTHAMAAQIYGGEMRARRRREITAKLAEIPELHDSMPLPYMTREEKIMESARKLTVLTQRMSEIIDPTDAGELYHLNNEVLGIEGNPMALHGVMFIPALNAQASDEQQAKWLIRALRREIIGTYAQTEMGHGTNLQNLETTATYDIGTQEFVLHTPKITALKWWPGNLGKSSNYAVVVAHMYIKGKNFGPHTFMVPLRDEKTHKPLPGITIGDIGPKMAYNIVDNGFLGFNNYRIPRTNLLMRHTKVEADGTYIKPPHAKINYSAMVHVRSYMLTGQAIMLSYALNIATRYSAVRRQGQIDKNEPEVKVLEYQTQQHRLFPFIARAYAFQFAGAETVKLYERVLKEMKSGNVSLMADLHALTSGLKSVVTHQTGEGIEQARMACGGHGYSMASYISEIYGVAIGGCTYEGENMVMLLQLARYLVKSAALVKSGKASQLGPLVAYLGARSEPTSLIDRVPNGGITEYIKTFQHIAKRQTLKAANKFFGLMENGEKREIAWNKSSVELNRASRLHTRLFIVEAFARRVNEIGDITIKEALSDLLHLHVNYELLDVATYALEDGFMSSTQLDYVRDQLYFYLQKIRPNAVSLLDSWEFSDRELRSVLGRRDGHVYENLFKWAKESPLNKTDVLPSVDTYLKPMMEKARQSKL
Description: Enzyme-coupled kinetic assay, wild-type apo ACOX-1.1. The note with it: EC50 for ATP.

In a further assay the target is T2, ACOX-1.1 (Caenorhabditis elegans, UniProt O62140).
T2 sequence (O62140 1-674): T1 sequence (O62140 1-674)
Description: Enzyme-coupled kinetic assay, wild-type ACOX-1.1 as purified.

Another assay addresses T3, ACOX-1.1(R295Q) (Caenorhabditis elegans, UniProt O62140, R295Q).
T3 sequence (O62140 1-674 R295Q): T1 sequence (O62140 1-674) with R295Q
Put plainly: Enzyme-coupled kinetic assay, ACOX-1.1.

Changes are numbered by the printed parent chain. Values joined by “and” are separate entries in the source; they are usually repeats but may differ in a detail not shown here. Equal entries are not always repeated.

Consider `Nc1ncnc2c1ncn2[C@@H]1O[C@H](COP(=O)(O)OP(=O)(O)OP(=O)(O)O)[C@@H](O)[C@H]1O` [ATP], for which the EC50 on apo ACOX-1.1 (10 μM FAD, 95% CI: 54.8–87.1 μM) is 69.4 µM and ~69.4 µM; on apo ACOX-1.1 (200 μM FAD, 95% CI: 40.5–328.8 μM) it was 111 µM; at ACOX-1.1, 249 µM. For the same compound, the “response of enzyme activity to ATP” value at ACOX-1.1(R295Q) is listed as “do not respond to ATP”.

Source of the values: paper PMC12334608 (Nature Communications, 2025).
